Assay results: ChEMBL document CHEMBL5113453, “Design, synthesis, and biological evaluation of a new series of pyrazole derivatives: Discovery of potent and selective JNK3 kinase inhibitors” (Bioorg Med Chem, 2022)

Tests used:
HL-60(TB) = test: Antiproliferative activity against human HL-60(TB) cells measured after 48 hrs by SRB assay; type: functional, cell-based
K562 = test: Antiproliferative activity against human K562 cells measured after 48 hrs by SRB assay; type: functional, cell-based
MOLT-4 = test: Antiproliferative activity against human MOLT-4 cells measured after 48 hrs by SRB assay; type: functional, cell-based
RPMI-8226 = test: Antiproliferative activity against human RPMI-8226 cells measured after 48 hrs by SRB assay; type: functional, cell-based
SR = test: Antiproliferative activity against human SR cells measured after 48 hrs by SRB assay; type: functional, cell-based
A549 = test: Antiproliferative activity against human A549 cells measured after 48 hrs by SRB assay; type: functional, cell-based
EKVX = test: Antiproliferative activity against human EKVX cells measured after 48 hrs by SRB assay; type: functional, cell-based
NCI-H226 = test: Antiproliferative activity against human NCI-H226 cells measured after 48 hrs by SRB assay; type: functional, cell-based
NCI-H322M = test: Antiproliferative activity against human NCI-H322M cells measured after 48 hrs by SRB assay; type: functional, cell-based
NCI-H522 = test: Antiproliferative activity against human NCI-H522 cells measured after 48 hrs by SRB assay; type: functional, cell-based
HCT-116 = test: Antiproliferative activity against human HCT-116 cells measured after 48 hrs by SRB assay; type: functional, cell-based
HCT-15 = test: Antiproliferative activity against human HCT-15 cells measured after 48 hrs by SRB assay; type: functional, cell-based
KM12 = test: Antiproliferative activity against human KM12 cells measured after 48 hrs by SRB assay; type: functional, cell-based
SW-620 = test: Antiproliferative activity against human SW-620 cells measured after 48 hrs by SRB assay; type: functional, cell-based
SF-268 = test: Antiproliferative activity against human SF-268 cells measured after 48 hrs by SRB assay; type: functional, cell-based
SNB-19 = test: Antiproliferative activity against human SNB-19 cells measured after 48 hrs by SRB assay; type: functional, cell-based
SNB-75 = test: Antiproliferative activity against human SNB-75 cells measured after 48 hrs by SRB assay; type: functional, cell-based
Malme-3M = test: Antiproliferative activity against human Malme-3M cells measured after 48 hrs by SRB assay; type: functional, cell-based
M14 = test: Antiproliferative activity against human M14 cells measured after 48 hrs by SRB assay; type: functional, cell-based
SK-MEL-28 = test: Antiproliferative activity against human SK-MEL-28 cells measured after 48 hrs by SRB assay; type: functional, cell-based
UACC-62 = test: Antiproliferative activity against human UACC-62 cells measured after 48 hrs by SRB assay; type: functional, cell-based
OVCAR-3 = test: Antiproliferative activity against human OVCAR-3 cells measured after 48 hrs by SRB assay; type: functional, cell-based
OVCAR-4 = test: Antiproliferative activity against human OVCAR-4 cells measured after 48 hrs by SRB assay; type: functional, cell-based
OVCAR-5 = test: Antiproliferative activity against human OVCAR-5 cells measured after 48 hrs by SRB assay; type: functional, cell-based
OVCAR-8 = test: Antiproliferative activity against human OVCAR-8 cells measured after 48 hrs by SRB assay; type: functional, cell-based
NCI/ADR-RES = test: Antiproliferative activity against human NCI-ADR-RES cells measured after 48 hrs by SRB assay; type: functional, cell-based
SK-OV-3 = test: Antiproliferative activity against human SK-OV-3 cells measured after 48 hrs by SRB assay; type: functional, cell-based
786-0 = test: Antiproliferative activity against human 786-0 cells measured after 48 hrs by SRB assay; type: functional, cell-based
A498 = test: Antiproliferative activity against human A498 cells measured after 48 hrs by SRB assay; type: functional, cell-based
ACHN = test: Antiproliferative activity against human ACHN cells measured after 48 hrs by SRB assay; type: functional, cell-based
CAKI-1 = test: Antiproliferative activity against human CAKI-1 cells measured after 48 hrs by SRB assay; type: functional, cell-based
RXF 393 = test: Antiproliferative activity against human RXF 393 cells measured after 48 hrs by SRB assay; type: functional, cell-based
SN12C = test: Antiproliferative activity against human SN12C cells measured after 48 hrs by SRB assay; type: functional, cell-based
PC-3 = test: Antiproliferative activity against human PC-3 cells measured after 48 hrs by SRB assay; type: functional, cell-based
DU-145 = test: Antiproliferative activity against human DU-145 cells measured after 48 hrs by SRB assay; type: functional, cell-based
BT-549 = test: Antiproliferative activity against human BT-549 cells measured after 48 hrs by SRB assay; type: functional, cell-based
MDA-MB-468 = test: Antiproliferative activity against human MDA-MB-468 cells measured after 48 hrs by SRB assay; type: functional, cell-based
WI-38 = test: Antiproliferative activity against human WI-38 cells measured by MTT assay; type: functional, cell-based
[1] = target: T1, Mitogen-activated protein kinase 10 (Homo sapiens, UniProt P53779); test: Inhibition of JNK3 (unknown origin) at 1 uM relative to control
T1 sequence (P53779 whole entry): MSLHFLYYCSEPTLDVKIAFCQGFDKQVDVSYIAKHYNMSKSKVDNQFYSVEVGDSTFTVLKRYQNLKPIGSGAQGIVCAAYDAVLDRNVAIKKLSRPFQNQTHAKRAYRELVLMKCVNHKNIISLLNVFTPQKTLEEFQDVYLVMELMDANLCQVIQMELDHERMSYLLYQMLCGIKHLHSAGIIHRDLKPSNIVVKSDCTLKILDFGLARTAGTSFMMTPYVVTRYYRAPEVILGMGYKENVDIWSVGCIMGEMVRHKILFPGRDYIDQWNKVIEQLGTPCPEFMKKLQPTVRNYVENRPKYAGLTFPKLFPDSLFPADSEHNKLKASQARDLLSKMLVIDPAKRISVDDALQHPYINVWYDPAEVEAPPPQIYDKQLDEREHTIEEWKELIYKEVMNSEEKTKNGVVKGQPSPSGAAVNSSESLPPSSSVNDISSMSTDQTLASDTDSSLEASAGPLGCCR

[2] = target: T1, Mitogen-activated protein kinase 10; test: Inhibition of JNK3 (unknown origin)

Q: With `O=C(Nc1ccc(Cl)c(C(F)(F)F)c1)N1CCN(c2cc(-c3cn(-c4ccccc4)nc3-c3cccc(O)c3)ccn2)CC1` as the compound, how does the IC50 (HL-60(TB); HL-60, 48 h) read?
A: 2.34 µM

Q: And the TGI (HL-60(TB); HL-60, time 48 hrs)?
A: 8.58 µM

Q: And the IC50 (K562; K562, 48 h)?
A: 2.13 µM

Q: And the TGI (K562; K562, time 48 hrs)?
A: > 22 µM

Q: What about the IC50 (MOLT-4; MOLT-4, 48 h) of the same compound?
A: 0.93 µM

Q: What about the TGI (MOLT-4; MOLT-4, time 48 hrs) of the same compound?
A: 7.58 µM

Q: And the IC50 (RPMI-8226; RPMI-8226, 48 h)?
A: 1.21 µM

Q: And the TGI (RPMI-8226; RPMI-8226, time 48 hrs)?
A: 11.8 µM

Q: What about the IC50 (SR; 48 h) of the same compound?
A: 3.07 µM

Q: And the TGI (SR; time 48 hrs)?
A: > 22 µM

Q: What about the IC50 (A549; A549, 48 h) of the same compound?
A: 4.34 µM

Q: And the TGI (A549; A549, time 48 hrs)?
A: > 22 µM

Q: What about the IC50 (EKVX; 48 h) of the same compound?
A: 2.57 µM

Q: And the TGI (EKVX; time 48 hrs)?
A: 19.6 µM

Q: What about the IC50 (NCI-H226; NCI-H226, 48 h) of the same compound?
A: 3.22 µM

Q: What about the TGI (NCI-H226; NCI-H226, time 48 hrs) of the same compound?
A: 15.8 µM

Q: And the IC50 (NCI-H322M; 48 h)?
A: 5.86 µM

Q: What about the TGI (NCI-H322M; time 48 hrs) of the same compound?
A: > 22 µM

Q: What about the IC50 (NCI-H522; NCI-H522, 48 h) of the same compound?
A: 2.77 µM

Q: And the TGI (NCI-H522; NCI-H522, time 48 hrs)?
A: 9.26 µM

Q: What about the IC50 (HCT-116; HCT-116, 48 h) of the same compound?
A: 1.86 µM

Q: What about the TGI (HCT-116; HCT-116, time 48 hrs) of the same compound?
A: > 22 µM

Q: What about the IC50 (HCT-15; HCT-15, 48 h) of the same compound?
A: 2.84 µM

Q: What about the TGI (HCT-15; HCT-15, time 48 hrs) of the same compound?
A: > 22 µM

Q: And the IC50 (KM12; KM12, 48 h)?
A: 3.34 µM

Q: What about the TGI (KM12; KM12, time 48 hrs) of the same compound?
A: 15.2 µM

Q: And the IC50 (SW-620; SW-620, 48 h)?
A: 4.78 µM

Q: What about the TGI (SW-620; SW-620, time 48 hrs) of the same compound?
A: > 22 µM

Q: What about the IC50 (SF-268; SF-268, 48 h) of the same compound?
A: 3.3 µM

Q: What about the TGI (SF-268; SF-268, time 48 hrs) of the same compound?
A: > 22 µM

Q: And the IC50 (SNB-19; SNB-19, 48 h)?
A: 4.06 µM

Q: What about the TGI (SNB-19; SNB-19, time 48 hrs) of the same compound?
A: > 22 µM

Q: And the IC50 (SNB-75; SNB-75, 48 h)?
A: 0.63 µM

Q: And the TGI (SNB-75; SNB-75, time 48 hrs)?
A: 11.1 µM

Q: And the IC50 (Malme-3M; 48 h)?
A: 3.3 µM

Q: What about the TGI (Malme-3M; time 48 hrs) of the same compound?
A: 8.95 µM

Q: What about the IC50 (M14; M14, 48 h) of the same compound?
A: 3.03 µM

Q: And the TGI (M14; M14, time 48 hrs)?
A: 12.5 µM

Q: And the IC50 (SK-MEL-28; SK-MEL-28, 48 h)?
A: 3.41 µM

Q: What about the TGI (SK-MEL-28; SK-MEL-28, time 48 hrs) of the same compound?
A: 10.3 µM

Q: What about the IC50 (UACC-62; UACC-62, 48 h) of the same compound?
A: 2.68 µM

Q: And the TGI (UACC-62; UACC-62, time 48 hrs)?
A: 5.77 µM

Q: What about the IC50 (OVCAR-3; OVCAR-3, 48 h) of the same compound?
A: 1.76 µM

Q: What about the TGI (OVCAR-3; OVCAR-3, time 48 hrs) of the same compound?
A: 11.5 µM

Q: And the IC50 (OVCAR-4; OVCAR-4, 48 h)?
A: 2.02 µM

Q: What about the TGI (OVCAR-4; OVCAR-4, time 48 hrs) of the same compound?
A: > 22 µM

Q: What about the IC50 (OVCAR-5; OVCAR-5, 48 h) of the same compound?
A: 4.13 µM

Q: What about the TGI (OVCAR-5; OVCAR-5, time 48 hrs) of the same compound?
A: 10.5 µM

Q: What about the IC50 (OVCAR-8; OVCAR-8, 48 h) of the same compound?
A: 4.72 µM

Q: What about the TGI (OVCAR-8; OVCAR-8, time 48 hrs) of the same compound?
A: > 22 µM

Q: And the IC50 (NCI/ADR-RES; 48 h)?
A: 2.91 µM

Q: And the TGI (NCI/ADR-RES; time 48 hrs)?
A: 11.9 µM

Q: What about the IC50 (SK-OV-3; SK-OV-3, 48 h) of the same compound?
A: 6.43 µM

Q: What about the TGI (SK-OV-3; SK-OV-3, time 48 hrs) of the same compound?
A: > 22 µM

Q: And the IC50 (786-0; 786-0, 48 h)?
A: 4.02 µM

Q: And the TGI (786-0; 786-0, time 48 hrs)?
A: > 22 µM

Q: And the IC50 (A498; A498, 48 h)?
A: 4.72 µM

Q: And the TGI (A498; A498, time 48 hrs)?
A: 21 µM

Q: What about the IC50 (ACHN; 48 h) of the same compound?
A: 3 µM

Q: What about the TGI (ACHN; time 48 hrs) of the same compound?
A: 17 µM

Q: And the IC50 (CAKI-1; CAKI-1, 48 h)?
A: 4.18 µM

Q: What about the TGI (CAKI-1; CAKI-1, time 48 hrs) of the same compound?
A: 19.4 µM

Q: What about the IC50 (RXF 393; RXF 393, 48 h) of the same compound?
A: 2.42 µM

Q: What about the TGI (RXF 393; RXF 393, time 48 hrs) of the same compound?
A: 9.79 µM

Q: What about the IC50 (SN12C; 48 h) of the same compound?
A: 3.21 µM

Q: What about the TGI (SN12C; time 48 hrs) of the same compound?
A: > 22 µM

Q: What about the IC50 (PC-3; PC-3, 48 h) of the same compound?
A: 0.97 µM

Q: What about the TGI (PC-3; PC-3, time 48 hrs) of the same compound?
A: 17 µM

Q: And the IC50 (DU-145; DU-145, 48 h)?
A: 7.15 µM

Q: And the TGI (DU-145; DU-145, time 48 hrs)?
A: > 22 µM

Q: What about the IC50 (BT-549; BT-549, 48 h) of the same compound?
A: 3.33 µM

Q: What about the TGI (BT-549; BT-549, time 48 hrs) of the same compound?
A: 7.99 µM

Q: What about the IC50 (MDA-MB-468; MDA-MB-468, 48 h) of the same compound?
A: 1.03 µM

Q: And the TGI (MDA-MB-468; MDA-MB-468, time 48 hrs)?
A: 7.22 µM

Q: And the IC50 (WI-38)?
A: > 20 µM

Q: And the inhibition [1]?
A: 14%

Q: What about the IC50 [2] of the same compound?
A: > 1 µM
